Measurements from publication doi:10.1101/2024.08.19.608619, “Discovery of potent SARS-CoV-2 nsp3 macrodomain inhibitors uncovers lack of translation to cellular antiviral response” (bioRxiv, 2024).
Like-named read-outs stand apart in the source and are kept apart here.

What was measured:
[1] = biological target: T1, c-RAF(h) (Homo sapiens, UniProt P04049); assay: biochemical; parameters: In vitro kinase panel profiling, per cent remaining kinase activity at 10 uM; details: atp_concentration=120, read-out: % of control remaining
T1 construct: gene RAF1
Text: (§1) We derisk potential for off-target activity by profiling the compound in a CEREP panel, a standard secondary pharmacology assessment, as well as a kinase panel to derisk a potential hinge-binding motif in our leads, and a PARP panel to derisk activity against human […]. Reassuringly, the compounds are selective, with the only off-targets being moderate human CHRM2 and KOR receptors activity associated with ASAP-0011198.

[2] = biological target: T2, CaMKI(h) (Homo sapiens, UniProt Q14012); assay: biochemical; parameters: In vitro kinase panel profiling, per cent remaining kinase activity at 10 uM; details: atp_concentration=200, read-out: % of control remaining
T2 construct: gene CAMK1
Text: as §1

T2 sequence (Q14012 whole entry): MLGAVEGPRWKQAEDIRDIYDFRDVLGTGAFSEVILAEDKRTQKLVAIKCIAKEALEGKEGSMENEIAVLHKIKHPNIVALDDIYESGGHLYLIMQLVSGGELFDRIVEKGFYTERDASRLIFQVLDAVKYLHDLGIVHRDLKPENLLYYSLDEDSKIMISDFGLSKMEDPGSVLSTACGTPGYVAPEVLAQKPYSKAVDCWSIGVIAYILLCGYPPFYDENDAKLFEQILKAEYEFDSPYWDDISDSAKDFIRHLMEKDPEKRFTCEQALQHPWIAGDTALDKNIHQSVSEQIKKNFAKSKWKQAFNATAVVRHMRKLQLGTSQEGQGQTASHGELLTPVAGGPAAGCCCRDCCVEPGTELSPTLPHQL
T1 sequence (P04049 whole entry): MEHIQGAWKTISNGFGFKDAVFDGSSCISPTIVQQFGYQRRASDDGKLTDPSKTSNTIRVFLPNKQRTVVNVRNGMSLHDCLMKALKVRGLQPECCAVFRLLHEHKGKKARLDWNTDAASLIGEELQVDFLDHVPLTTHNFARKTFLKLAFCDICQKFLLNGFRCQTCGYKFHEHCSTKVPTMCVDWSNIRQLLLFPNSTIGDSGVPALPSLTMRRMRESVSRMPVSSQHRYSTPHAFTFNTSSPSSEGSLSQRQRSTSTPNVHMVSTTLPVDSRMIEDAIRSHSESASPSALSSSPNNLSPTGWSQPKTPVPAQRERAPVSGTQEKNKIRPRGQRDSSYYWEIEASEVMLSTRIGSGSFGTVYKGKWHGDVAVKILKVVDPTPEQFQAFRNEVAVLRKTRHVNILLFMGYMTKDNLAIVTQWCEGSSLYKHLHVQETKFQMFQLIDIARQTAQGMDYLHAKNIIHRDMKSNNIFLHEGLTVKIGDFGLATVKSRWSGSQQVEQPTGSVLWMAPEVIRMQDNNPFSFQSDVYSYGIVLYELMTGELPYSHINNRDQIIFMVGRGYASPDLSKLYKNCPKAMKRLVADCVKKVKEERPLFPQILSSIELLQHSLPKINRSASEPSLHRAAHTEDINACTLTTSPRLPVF

In the case of `CC(C)C(Nc1ncnc2[nH]ccc12)c1ccc2c(c1)S(=O)(=O)CCC2` (stereo not drawn) [ASAP-0008327], the remaining activity at 10 µM ([1]; batch_name=ASAP-0008327-001) is reported as 97% and the remaining activity at 10 µM ([2]; batch_name=ASAP-0008327-001) is reported as 94%.
`COc1ccc([C@@H](Cc2nnn[nH]2)NC(=O)c2ncnc3[nH]ccc23)cc1` [ASAP-0008340] was tested, and the remaining activity at 10 µM ([1]; batch_name=ASAP-0008340-001) was 90% and the remaining activity at 10 µM ([2]; batch_name=ASAP-0008340-001) was 100%.
Work on `CC(C)[C@@H](Nc1ncnc2[nH]c(-c3cnn(C)c3C#N)cc12)c1ccc2c(n1)OCCO2` [ASAP-0008418] yielded a remaining activity at 10 µM ([1]; batch_name=ASAP-0008418-001) of 81% and a remaining activity at 10 µM ([2]; batch_name=ASAP-0008418-001) of 104%.
